What was measured:
P. aeruginosa ATCC 27853 = experiment: Growth of P. aeruginosa culture in presence of EGT (optical density, 24 hours); type: cell-based; settings: 0.001%, 0.05% or 0.1% (w/v) added upon inoculation, MH media, 37 C, OD monitored 24 hours
Experimental: (§1) The growth of two bacterial strains, one commensal containing EGT-synthetic genes (P. aeruginosa ATCC 27853) and one pathogen lacking such genes (S. Aureus ATCC 6538) were compared in the presence and absence of EGT. Each strain was adjusted to an OD600 of 0.2 in MH culture media, inoculated into 96-well plates and incubated at 37 C. The growth of the cultures were monitored for optical density for 24 hours. The S. aureus and P. aeruginosa cultures reached stationary phase after 15 and 2 hours, respectively. Addition of L-ergothioneine (99+% purity) at 0.001%, 0.05% or 0.1% (w/v) upon inoculation had no effect on the growth rate of either culture.

S. Aureus ATCC 6538 = experiment: Growth of S. aureus culture in presence of EGT (optical density, 24 hours); type: cell-based; settings: 0.001%, 0.05% or 0.1% (w/v) added upon inoculation, MH media, 37 C, OD monitored 24 hours
Experimental: as §1

IL-8 = experiment: Release of inflammatory cytokine IL-8 by human keratinocytes after treatment with S. aureus; type: cell-based; settings: 24 hours pre-treatment, keratinocytes infected with S. aureus at multiplicity of infection of 10, 24 hours
Experimental: The present example examines the release of the inflammatory cytokine IL-8 by human keratinocytes after treatment with S. aureus. Although S. aureus is associated with atopic dermatitis, IL-8 […] as inflammatory cytokine in this disease (Li and Yosipovitch, 2020).
Infection of a keratinocyte culture at a multiplicity of infection of 10 increased the amount of IL-8 from low levels in uninfected cultures to an increase of 6,044% in 24 hours in infected cultures. Pre-treatment of the keratinocyte cultures with EGT for 24 hours reduced the release of IL-8 by 61% for 0.005% EGT, 75% for 0.01% EGT, and 82% for 0.05% EGT.

[1] = Skin redness of atopic dermatitis lesions, topical formula, dermospectrophotometer; type: in vivo, human; settings: placebo 9%
Experimental: The present example tests the effect of EGT on skin inflammation in subjects with atopic dermatitis lesions.
Three topical formulas were prepared using a commercial formulation of EGT called MC-2, which is a granulated preparation of EGT mixed into mannitol. One formulation was a placebo, with only mannitol added. The second was a low dose formula containing EGT in the form of MC-2 added to a final concentration of 0.005% EGT (w/w). The third was a high dose formulation containing EGT in the form of MC-2 added to a final concentration of 0.05% EGT (w/w).
Subjects with patches of atopic dermatitis were recruited to the study and 16 were assigned to each of three arms: placebo, low dose EGT and high dose EGT. The subjects were 9 males and 39 females, representing each Fitzpatrick Skin Type (I-VI) in age range from 21 to 73 years old. The redness of the skin lesion was measured using a dermospectrophotometer and compared to adjacent uninvolved skin to determine a redness measure. The subjects used the test formula on the skin lesion twice a day for 4 weeks. The lesions were again measured with a dermospectrophotometer.

C[N+](C)(C)[C@@H](Cc1c[nH]c(=S)[nH]1)C(=O)[O-] [EGT]
effect on the growth rate of culture (P. aeruginosa ATCC 27853): no effect | effect on the growth rate of culture (S. Aureus ATCC 6538): no effect | reduction of release of IL-8 (IL-8; 0.005% EGT): 61% | reduction of release of IL-8 (IL-8; 0.01% EGT): 75% | reduction of release of IL-8 (IL-8; 0.05% EGT): 82% | redness reduction of skin lesion ([1]; high dose topical formula, 0.05% EGT (w/w) as MC-2, twice a day for 4 weeks): 50% | redness reduction of skin lesion ([1]; low dose topical formula, 0.005% EGT (w/w) as MC-2, twice a day for 4 weeks): 66%

Reference: US20250134866A1, “COMMENSAL SIGNALLING COMPOUNDS FOR TREATING OR PREVENTING MICROBIOME DYSFUNCTION IN THE SKIN OR MOUTH” (priority 2022, published 2025)
